Patent US6156700A, “3-(1,2-Benzisothiazol- and isoxazol-5-yl)-2,4(1H,3H)-pyrimidinedione or thione and 3-(1,2-benzisothiazol- and isoxazol-5-yl)-4(3H)-pyrimidinone or thione herbicidal agents” (American Cyanmid Company, priority 1998, dated 2000)

Tests used:
ZEAMX [1] = test: Postemergence herbicidal evaluation; assay type: in vivo
AMBEL [2] = test: Postemergence herbicidal evaluation; assay type: in vivo
ECHCG [3] = test: Postemergence herbicidal evaluation; assay type: in vivo
SETVI [4] = test: Postemergence herbicidal evaluation; assay type: in vivo
ECHCG [5] = test: Preemergence herbicidal evaluation; assay type: in vivo; design: scale not given here
Method: (§1) The preemergence and postemergence herbicidal properties of certain compounds of the present invention are compared with certain compounds disclosed in U.S. Pat. Nos. 5,484,763 and 5,523,278. The evaluations are performed as described in Examples 185 and 186. Data in Tables V and VI are reported by the compound number given in Example 185 for the compounds of this invention or by comparative compound letter for the compounds disclosed in U.S. Pat. Nos. 5,484,763 and 5,523,278.

IPOSS [6] = test: Preemergence herbicidal evaluation; assay type: in vivo; design: scale not given here
Method: as §1

ZEAMX [7] = test: Preemergence herbicidal evaluation; assay type: in vivo; design: scale not given here
Method: as §1

GALAP [8] = test: Preemergence herbicidal evaluation; assay type: in vivo; design: scale not given here
Method: as §1

GLXMAW [9] = test: Preemergence herbicidal evaluation; assay type: in vivo; design: scale not given here
Method: as §1

SETVI [10] = test: Preemergence herbicidal evaluation; assay type: in vivo; design: scale not given here
Method: as §1

CASOB [11] = test: Preemergence herbicidal evaluation; assay type: in vivo; design: scale not given here
Method: as §1

CHEAL [12] = test: Preemergence herbicidal evaluation; assay type: in vivo; design: scale not given here
Method: as §1

AMBEL [13] = test: Preemergence herbicidal evaluation; assay type: in vivo; design: scale not given here
Method: as §1

ABUTH [14] = test: Preemergence herbicidal evaluation; assay type: in vivo; design: scale not given here
Method: as §1

GLXMAW [15] = test: Postemergence herbicidal evaluation; assay type: in vivo
ABUTH [16] = test: Postemergence herbicidal evaluation; assay type: in vivo
GALAP [17] = test: Postemergence herbicidal evaluation; assay type: in vivo
ORYSAT [18] = test: Preemergence herbicidal evaluation; assay type: in vivo, Oryza sativa; design: scale not given here
Method: as §1

CHEAL [19] = test: Postemergence herbicidal evaluation; assay type: in vivo
CASOB [20] = test: Postemergence herbicidal evaluation; assay type: in vivo
IPOSS [21] = test: Postemergence herbicidal evaluation; assay type: in vivo
ORYSAT [22] = test: Postemergence herbicidal evaluation; assay type: in vivo, Oryza sativa

O=C1C2=C(CCCC2)C(=O)N1c1ccc2sncc2c1 [C]
herbicidal effect rating (ZEAMX [1]; 0.0157-0.0160 kg/ha): 1.5
herbicidal effect rating (ZEAMX [1]; 0.0313-0.0320 kg/ha): 2.0
herbicidal effect rating (ZEAMX [1]; 0.0625-0.0640 kg/ha): 1.5
herbicidal effect rating (ZEAMX [1]; 0.1250 kg/ha): 1.5
herbicidal effect rating (ZEAMX [1]; 0.2500 kg/ha): 2.5
herbicidal effect rating (ZEAMX [1]; 0.5000 kg/ha): 3.0
herbicidal effect rating (AMBEL [2]; 0.0157-0.0160 kg/ha): 6.0
herbicidal effect rating (AMBEL [2]; 0.0313-0.0320 kg/ha): 6.0
herbicidal effect rating (AMBEL [2]; 0.0625-0.0640 kg/ha): 7.0
herbicidal effect rating (AMBEL [2]; 0.1250 kg/ha): 8.0
herbicidal effect rating (AMBEL [2]; 0.2500 kg/ha): 7.0
herbicidal effect rating (AMBEL [2]; 0.5000 kg/ha): 9.0
herbicidal effect rating (ECHCG [3]; 0.0157-0.0160 kg/ha): 0.0
herbicidal effect rating (ECHCG [3]; 0.0313-0.0320 kg/ha): 0.0
herbicidal effect rating (ECHCG [3]; 0.0625-0.0640 kg/ha): 0.0
herbicidal effect rating (ECHCG [3]; 0.1250 kg/ha): 0.0
herbicidal effect rating (ECHCG [3]; 0.2500 kg/ha): 0.0
herbicidal effect rating (ECHCG [3]; 0.5000 kg/ha): 0.0
herbicidal effect rating (SETVI [4]; 0.0157-0.0160 kg/ha): 0.0
herbicidal effect rating (SETVI [4]; 0.0313-0.0320 kg/ha): 0.0
herbicidal effect rating (SETVI [4]; 0.0625-0.0640 kg/ha): 0.0
herbicidal effect rating (SETVI [4]; 0.1250 kg/ha): 0.0
herbicidal effect rating (SETVI [4]; 0.2500 kg/ha): 0.0
herbicidal effect rating (SETVI [4]; 0.5000 kg/ha): 2.0
herbicidal effect rating (ECHCG [5]; 0.0313-0.0320 kg/ha): 0.0
herbicidal effect rating (ECHCG [5]; 0.0620-0.0630 kg/ha): 0.0
herbicidal effect rating (ECHCG [5]; 0.1250 kg/ha): 2.0
herbicidal effect rating (ECHCG [5]; 0.2500 kg/ha): 4.0
herbicidal effect rating (ECHCG [5]; 0.5000 kg/ha): 6.0
herbicidal effect rating (IPOSS [6]; 0.0313-0.0320 kg/ha): 0.0
herbicidal effect rating (IPOSS [6]; 0.0620-0.0630 kg/ha): 0.0
herbicidal effect rating (IPOSS [6]; 0.1250 kg/ha): 0.0
herbicidal effect rating (IPOSS [6]; 0.2500 kg/ha): 0.0
herbicidal effect rating (IPOSS [6]; 0.5000 kg/ha): 2.0
herbicidal effect rating (ZEAMX [7]; 0.0313-0.0320 kg/ha): 0.0
herbicidal effect rating (ZEAMX [7]; 0.0620-0.0630 kg/ha): 0.0
herbicidal effect rating (ZEAMX [7]; 0.1250 kg/ha): 0.0
herbicidal effect rating (ZEAMX [7]; 0.2500 kg/ha): 0.0
herbicidal effect rating (ZEAMX [7]; 0.5000 kg/ha): 0.0
herbicidal effect rating (GALAP [8]; 0.0620-0.0630 kg/ha): 2.0
herbicidal effect rating (GALAP [8]; 0.1250 kg/ha): 2.0
herbicidal effect rating (GALAP [8]; 0.2500 kg/ha): 6.0
herbicidal effect rating (GALAP [8]; 0.5000 kg/ha): 7.5
herbicidal effect rating (GLXMAW [9]; 0.0313-0.0320 kg/ha): 0.0
herbicidal effect rating (GLXMAW [9]; 0.0620-0.0630 kg/ha): 0.0
herbicidal effect rating (GLXMAW [9]; 0.1250 kg/ha): 0.0
herbicidal effect rating (GLXMAW [9]; 0.2500 kg/ha): 0.0
herbicidal effect rating (GLXMAW [9]; 0.5000 kg/ha): 0.0
herbicidal effect rating (SETVI [10]; 0.0313-0.0320 kg/ha): 0.0
herbicidal effect rating (SETVI [10]; 0.0620-0.0630 kg/ha): 0.0
herbicidal effect rating (SETVI [10]; 0.1250 kg/ha): 2.0
herbicidal effect rating (SETVI [10]; 0.2500 kg/ha): 4.0
herbicidal effect rating (SETVI [10]; 0.5000 kg/ha): 5.0
herbicidal effect rating (CASOB [11]; 0.0313-0.0320 kg/ha): 1.0
herbicidal effect rating (CASOB [11]; 0.0620-0.0630 kg/ha): 0.0
herbicidal effect rating (CASOB [11]; 0.1250 kg/ha): 0.0
herbicidal effect rating (CASOB [11]; 0.2500 kg/ha): 0.0
herbicidal effect rating (CASOB [11]; 0.5000 kg/ha): 5.5
herbicidal effect rating (CHEAL [12]; 0.0313-0.0320 kg/ha): 3.0
herbicidal effect rating (CHEAL [12]; 0.0620-0.0630 kg/ha): 4.0
herbicidal effect rating (CHEAL [12]; 0.1250 kg/ha): 5.0
herbicidal effect rating (CHEAL [12]; 0.2500 kg/ha): 3.0
herbicidal effect rating (CHEAL [12]; 0.5000 kg/ha): 7.0
herbicidal effect rating (AMBEL [13]; 0.0313-0.0320 kg/ha): 3.0
herbicidal effect rating (AMBEL [13]; 0.0620-0.0630 kg/ha): 3.0
herbicidal effect rating (AMBEL [13]; 0.1250 kg/ha): 2.0
herbicidal effect rating (AMBEL [13]; 0.2500 kg/ha): 2.0
herbicidal effect rating (AMBEL [13]; 0.5000 kg/ha): 6.0
herbicidal effect rating (ABUTH [14]; 0.0313-0.0320 kg/ha): 0.0
herbicidal effect rating (ABUTH [14]; 0.0620-0.0630 kg/ha): 2.0
herbicidal effect rating (ABUTH [14]; 0.1250 kg/ha): 4.0
herbicidal effect rating (ABUTH [14]; 0.2500 kg/ha): 9.0
herbicidal effect rating (ABUTH [14]; 0.5000 kg/ha): 9.0
herbicidal effect rating (GLXMAW [15]; 0.0157-0.0160 kg/ha): 1.0
herbicidal effect rating (GLXMAW [15]; 0.0313-0.0320 kg/ha): 1.5
herbicidal effect rating (GLXMAW [15]; 0.0625-0.0640 kg/ha): 3.0
herbicidal effect rating (GLXMAW [15]; 0.1250 kg/ha): 2.0
herbicidal effect rating (GLXMAW [15]; 0.2500 kg/ha): 2.5
herbicidal effect rating (GLXMAW [15]; 0.5000 kg/ha): 4.5
herbicidal effect rating (ABUTH [16]; 0.0157-0.0160 kg/ha): 8.0
herbicidal effect rating (ABUTH [16]; 0.0313-0.0320 kg/ha): 9.0
herbicidal effect rating (ABUTH [16]; 0.0625-0.0640 kg/ha): 9.0
herbicidal effect rating (ABUTH [16]; 0.1250 kg/ha): 9.0
herbicidal effect rating (ABUTH [16]; 0.2500 kg/ha): 9.0
herbicidal effect rating (ABUTH [16]; 0.5000 kg/ha): 9.0
herbicidal effect rating (GALAP [17]; 0.0157-0.0160 kg/ha): 2.0
herbicidal effect rating (GALAP [17]; 0.0313-0.0320 kg/ha): 3.0
herbicidal effect rating (GALAP [17]; 0.0625-0.0640 kg/ha): 5.0
herbicidal effect rating (GALAP [17]; 0.1250 kg/ha): 6.0
herbicidal effect rating (GALAP [17]; 0.2500 kg/ha): 6.0
herbicidal effect rating (GALAP [17]; 0.5000 kg/ha): 9.0
herbicidal effect rating (ORYSAT [18]; 0.0313-0.0320 kg/ha): 1.0
herbicidal effect rating (ORYSAT [18]; 0.0620-0.0630 kg/ha): 2.0
herbicidal effect rating (ORYSAT [18]; 0.1250 kg/ha): 2.0
herbicidal effect rating (ORYSAT [18]; 0.2500 kg/ha): 4.0
herbicidal effect rating (ORYSAT [18]; 0.5000 kg/ha): 4.0
herbicidal effect rating (CHEAL [19]; 0.0157-0.0160 kg/ha): 0.0
herbicidal effect rating (CHEAL [19]; 0.0313-0.0320 kg/ha): 3.0
herbicidal effect rating (CHEAL [19]; 0.0625-0.0640 kg/ha): 3.0
herbicidal effect rating (CHEAL [19]; 0.1250 kg/ha): 3.0
herbicidal effect rating (CHEAL [19]; 0.2500 kg/ha): 4.0
herbicidal effect rating (CHEAL [19]; 0.5000 kg/ha): 5.0
herbicidal effect rating (CASOB [20]; 0.0157-0.0160 kg/ha): 3.0
herbicidal effect rating (CASOB [20]; 0.0313-0.0320 kg/ha): 8.0
herbicidal effect rating (CASOB [20]; 0.0625-0.0640 kg/ha): 7.0
herbicidal effect rating (CASOB [20]; 0.1250 kg/ha): 7.0
herbicidal effect rating (CASOB [20]; 0.2500 kg/ha): 7.0
herbicidal effect rating (CASOB [20]; 0.5000 kg/ha): 9.0
herbicidal effect rating (IPOSS [21]; 0.0157-0.0160 kg/ha): 2.0
herbicidal effect rating (IPOSS [21]; 0.0313-0.0320 kg/ha): 6.0
herbicidal effect rating (IPOSS [21]; 0.0625-0.0640 kg/ha): 5.0
herbicidal effect rating (IPOSS [21]; 0.1250 kg/ha): 7.0
herbicidal effect rating (IPOSS [21]; 0.2500 kg/ha): 6.0
herbicidal effect rating (IPOSS [21]; 0.5000 kg/ha): 7.0
herbicidal effect rating (ORYSAT [22]; 0.0157-0.0160 kg/ha): 2.0
herbicidal effect rating (ORYSAT [22]; 0.0313-0.0320 kg/ha): 2.0
herbicidal effect rating (ORYSAT [22]; 0.0625-0.0640 kg/ha): 2.5
herbicidal effect rating (ORYSAT [22]; 0.1250 kg/ha): 2.5
herbicidal effect rating (ORYSAT [22]; 0.2500 kg/ha): 3.0
herbicidal effect rating (ORYSAT [22]; 0.5000 kg/ha): 4.5
